Where a name gives a salt, the structure may show the parent alone. Read-outs that look alike come from different tables or passages of the source.
How the values were obtained:
[1] = test system: Human colon cancer strain Colo320D.M.; test: Combined use of E7070 and 5-FU in human colon cancer Colo320D.M. xenograft model; details: alone or simultaneous; for Toxicity Dead/Treated: E7070 30 mg/kg/day day 1-5, 5-FU 60 mg/kg/day day 1, 5, 9
Excerpt: (§1) Cancer Chemother Pharmacol. 1992;30(1):25-30; (ii)Enhancement of vincristine cytotoxicity in drug-resistant cells by simultaneous treatment with onconase, an antitumor ribonuclease. J Natl Cancer Inst. 1996 June 5;88(11):747-53; (iii)Effects of growth hormone and testosterone on cortical bone formation and bone density in aged orchiectomized rats. Bone. 1999 May;24(5):491-7).

[2] = test system: Human colon cancer strain HCT15; details: alone or in combination; for Toxicity Dead/Treated: E7070 30 mg/kg/day QDx5, CPT-11 75 mg/kg/day Q4Dx3; for Tx4 (days) mean ± S.D.: HCT15 xenograft, nude mice, iv, E7070 30 mg/kg/day QDx5 (day 1-5), CPT-11 75 mg/kg/day Q4Dx3 (day 1, 5, 9)
Excerpt: as §1

[3] = test system: Human colon cancer strain SW620; details: E7070 25 mg/kg/day day 1-5, CPT-11 62.5 mg/kg/day day 1, 5, 9, alone or simultaneous
Excerpt: as §1

[4] = test system: Human non-small cell lung cancer LU-99; details: alone or simultaneous
Excerpt: as §1

[5] = test system: Human colon cancer strain HCT15; test: Combined use of E7070 and MMC in human colon cancer HCT15 xenograft model; details: alone or in combination; for Toxicity Dead/Treated: E7070 25 mg/kg/day QDx5, MMC 4.19 mg/kg/day QDx1; for Tx4 (days) mean ± S.D.: HCT15 xenograft, nude mice, iv, E7070 25 mg/kg/day QDx5 (day 1-5; combination line prints 30 mg/kg/day), MMC 4.19 mg/kg/day QDx1 (day 1)
Excerpt: as §1

[6] = used in combination with E7070; model and data not given
[7] = test system: Human colon cancer strain HCT15; test: Combined use of E7070 and Gemcitabine in human colon cancer HCT15 xenograft model; type: in vivo, nude mouse; details: used in combination with E7070; no data given
Excerpt: as §1

[8] = E7070 25 mg/kg/day day 1-5, CDDP 7.5 mg/kg/day day 1

## O=c1[nH]cc(F)c(=O)[nH]1 [5-FU, 5-fluoro-2,4-(1H,3H)-pyrimidinedione]
[1]; Colo320D.M. xenograft, nude mice, iv, E7070 30 mg/kg/day QDx5 (day 1-5), 5-FU 60 mg/kg/day Q4Dx3 (day 1, 5, 9)
  Tx4 (days) mean ± S.D.: 10.0 ± 0.7 days
[1]
  Toxicity Dead/Treated: 0/6

## CCc1c2c(nc3ccc(OC(=O)N4CCC(N5CCCCC5)CC4)cc13)-c1cc3c(c(=O)n1C2)COC(=O)[C@]3(O)CC [CPT-11, [1,4′-Bipiperidine]-1′-carboxylic acid (S)-4,11-diethyl-3,4,12,14-tetrahydro-4-hydroxy-3,14-dioxo-1H-pyrano-[3′,4′:6,7]-indolizino[1,2-b]quinolin-9-yl ester Hydrochloride trihydrate]
[2]
  Toxicity Dead/Treated: 0/6
  Tx4 (days) mean ± S.D.: 17.8 ± 1.0 days
[3]
  Toxicity Dead/Treated: 0/6

## NS(=O)(=O)c1ccc(S(=O)(=O)Nc2cccc3c(Cl)c[nH]c23)cc1 [E7070, N-(3-chloro-1H-indol-7-yl)-4-sulfamoylbenzenesulfonamide]
[2]
  Toxicity Dead/Treated: 0/6
  Tx4 (days) mean ± S.D.: 18.7 ± 2.0 days
[3]
  Toxicity Dead/Treated: 0/6
[3]; minimum relative tumor volume, day of minimum in parentheses in the cell
  mRTV mean ± S.D.: 0.76 ± 0.42(12)
[4]; [8]
  Toxicity Dead/Treated: 0/6
[4]; minimum relative tumor volume, E7070 25 mg/kg/day day 1-5, CDDP 7.5 mg/kg/day day 1
  mRTV mean ± S.D.: 0.75 ± 0.16
[5]
  Toxicity Dead/Treated: 0/6
  Tx4 (days) mean ± S.D.: 12.7 ± 2.2 days
[1]
  Toxicity Dead/Treated: 0/6

## CO[C@@]12[C@H](COC(N)=O)C3=C(C(=O)C(C)=C(N)C3=O)N1C[C@@H]1N[C@@H]12 [MMC, [1aS-(1aα,8β,8aα,8bα)]-6-amino-8-[[(aminocarbonyl)oxy]methyl]1,1a,2,8,8a,8b-hexahydro-8a-methoxy-5-methylazirino[2′,3′:3,4]pyrrolo[1,2-a]indole-4,7-dione]
[5]
  Toxicity Dead/Treated: 0/6
  Tx4 (days) mean ± S.D.: 16.2 ± 3.4 days

## COc1cccc2c1C(=O)c1c(O)c3c(c(O)c1C2=O)C[C@@](O)(C(=O)CO)C[C@@H]3O[C@H]1C[C@H](N)[C@H](O)[C@H](C)O1 [doxorubicin, 10-[(3-amino-2,3,6-trideoxy-α-L-lyxo-hexopyranosyl)oxy]-7,8,9,10-tetrahydro-6,8,11-trihydroxy-8-(hydroxyacetyl)-1-methoxy-(8S-cis)-5,12-naphthacenedione]
[6]
  synergistic effect, antitumor activity: excellent antitumor activity

## Cl.Nc1ccn([C@@H]2O[C@H](CO)[C@@H](O)C2(F)F)c(=O)n1 [gemcitabine hydrochloride, 2′-deoxy-2′,2′-difluoro-cytidine hydrochloride]
[7]
  synergistic effect, antitumor activity: excellent antitumor activity

## cis-diamminedichloroplatinum [CDDP]
[4]; [8]
  Toxicity Dead/Treated: 0/6
[4]; LU-99 xenograft, nude mice, iv, E7070 25 mg/kg/day QDx5 (day 1-5), CDDP 7.5 mg/kg/day QDx1 (day 1)
  Tx4 (days) mean ± S.D.: 10.7 ± 0.5 days
[4]; minimum relative body weight, day of minimum in parentheses in the cell, E7070 25 mg/kg/day day 1-5, CDDP 7.5 mg/kg/day day 1
  Toxicity mRBW mean: 0.95(5)
